Data as given in patent publication US12286632B2, “Rationally-designed synthetic peptide shuttle agents for delivering polypeptide cargos from an extracellular space to the cytosol and/or nucleus of a target eukaryotic cell, uses thereof, methods and kits relating to same” (Feldan Bio Inc., priority 2016, dated 2025).

Experiments:
[1] = in vitro; settings: human, HeLa cells
[2] = system: HeLa cells; test: HOXB4-WT transduction, immuno-labelling and visualization by microscopy; format: cell-based, Human; settings: HOXB4-WT 25 μM; shuttle 35 μM; 10 seconds, Protocol B
Description: Adherent cells were plated on a sterile glass strip at 1.5×10^5 cells per well in a 24-plate well and incubated overnight at 37° C. For fixation, cells were incubated in 500 μL per well of formaldehyde (3.7% v/v) for 15 minutes at room temperature, and washed 3 times for 5 minutes with PBS. For permeabilization, cells were incubated in 500 μL per well of Triton™ X-100 (0.2%) for 10 minutes at room temperature, and washed 3 times for 5 minutes with PBS. For blocking, cells were incubated in 500 μL per well of PBS containing 1% BSA (PBS/BSA) for 60 minutes at room temperature. Primary mouse monoclonal antibody was diluted PBS/BSA (1%). Cells were incubated in 30 μL of primary antibody overnight at 4° C. Cells were washed 3 times for 5 minutes with PBS. Secondary antibody was diluted in PBS/BSA (1%) and cells were incubated in 250 μL of secondary antibody 30 minutes at room temperature in the dark. Cells were washed 3 times for 5 minutes with PBS. […]
Recombinant HOXB4-WT transcription factor (25 μM; Example 14.1) was co-incubated with 35 μM of His-CM18-PTD4 and exposed to HeLa cells for 10 seconds using Protocol B as described in Example 9.1. […] The cells were visualized by bright field and fluorescence microscopy at 20× and 40× magnifications as described in Example 3.2, and sample results are shown in FIG. 45. […]

[3] = system: PPIB gene; test: T7E1 DNA cleavage assay after CRISPR/Cas9-NLS delivery, HeLa cells; format: cell-based, Human; settings: shuttle 10 μM; Cas9-NLS 25 nM; HeLa cells 16 h, medium without serum
From the text: The T7 endonuclease I (T7E1) can be used to detect on-target CRISPR/Cas genome editing events in cultured cells. As an overview, genomic DNA from target cells is amplified by PCR. The PCR products are then denatured and reannealed to allow heteroduplex formation between wild-type DNA and CRISPR/Cas-mutated DNA. T7E1, which recognizes and cleaves mismatched DNA, is used to digest the heteroduplexes. The resulting cleaved and full-length PCR products are visualized by gel electrophoresis.
The T7E1 assay was performed with the Edit-R™ Synthetic crRNA Positive Controls (Dharmacon #U-007000-05) and the T7 Endonuclease I (NEB, Cat #M0302S). After the delivery of the CRISPR/Cas complex, cells were lysed in 100 μL of Phusion™ High-Fidelity DNA polymerase (NEB #M0530S) laboratory with additives. The cells were incubated for 15-30 minutes at 56° C., followed by deactivation for 5 minutes at 96° C. The plate was briefly centrifuged to collect the liquid at bottom of the wells. 50-μL PCR samples were set up for each sample to be analyzed. The PCR samples were heated to 95° C. for 10 minutes and then slowly (>15 minutes) cooled to room temperature. PCR product (-5 μL) was then separated on an agarose gel (2%) to confirm amplification. 15 μL of each reaction was incubated with T7E1 nuclease for 25 minutes at 37° C. […]

[4] = system: HeLa cells; test: GFP-NLS protein transduction assay (flow cytometry: Pos cells %, viability %, relative fluorescence intensity; microscopy); settings: for Relative fluorescence intensity (FL1-A) (n = 3): Table 10.3, Protocol C
[5] = system: Balb3T3 cells; test: GFP-NLS transduction in different adherent and suspension cells (flow cytometry, Pos cells % and viability %); format: cell-based; settings: Protocol B, 35 μM shuttle, 5 μM GFP-NLS, 10 seconds
Description: (§1) The media in wells was removed, cells were washed once with PBS previously warmed at 37° C., and the shuttle agent/cargo mixture was then added to cover all cells for the desired length of time. The shuttle agent/cargo mixture in wells was removed, the cells were washed once with PBS, and fresh complete medium was added. Before analysis, the cells were washed once with PBS and fresh complete medium was added.
(§2) The ability of the shuttle agent His-CM18-PTD4 to deliver GFP-NLS to the nuclei of different adherent and suspension cells using Protocols B (adherent cells) or C (suspension cells) as described in Example 9.1 was examined. The cell lines tested included: HeLa, Balb3T3, HEK 293T, CHO, NIH3T3, Myoblasts, Jurkat, THP-1, CA46, and HT2 cells, which were cultured as described in Example 1. GFP-NLS (5 μM; see Example 5.1) was co-incubated with 35 μM of His-CM18-PTD4 and exposed to adherent cells for 10 seconds (Protocol B), or was co-incubated with 5 μM of His-CM18-PTD4 and exposed to suspension cells for 15 seconds (Protocol C). […] “Pos cells (%)” is the mean percentages of all cells that emanate a GFP signal.

[6] = system: NIH3T3 cells; test: as above; format: cell-based; settings: Protocol B, 35 μM shuttle, 5 μM GFP-NLS, 10 seconds
Description: as §1, §2

[7] = HeLa, Protocol B, 35 μM shuttle, 5 μM GFP-NLS, 10 seconds
[8] = Table 10.3a, Protocol B, HeLa, shuttle 50 μM, GFP-NLS 5 μM, 10 seconds

What does the source list for `CC[C@H](C)[C@H](NC(=O)[C@H](CCCCN)NC(=O)[C@H](CCCCN)NC(=O)[C@H](Cc1ccccc1)NC(=O)[C@H](CC(C)C)NC(=O)[C@H](CCCCN)NC(=O)[C@H](Cc1c[nH]c2ccccc12)NC(=O)[C@H](CCCCN)NC(=O)[C@H](Cc1c[nH]cn1)NC(=O)[C@H](Cc1c[nH]cn1)NC(=O)[C@H](Cc1c[nH]cn1)NC(=O)[C@H](Cc1c[nH]cn1)NC(=O)[C@H](Cc1c[nH]cn1)NC(=O)[C@@H](N)Cc1c[nH]cn1)C(=O)NCC(=O)N[C@@H](C)C(=O)N[C@H](C(=O)N[C@@H](CC(C)C)C(=O)N[C@@H](CCCCN)C(=O)N[C@H](C(=O)N[C@@H](CC(C)C)C(=O)N[C@H](C(=O)N[C@H](C(=O)NCC(=O)N[C@@H](Cc1ccc(O)cc1)C(=O)N[C@@H](C)C(=O)N[C@@H](CCCNC(=N)N)C(=O)N[C@@H](C)C(=O)N[C@@H](C)C(=O)N[C@@H](C)C(=O)N[C@@H](CCCNC(=N)N)C(=O)N[C@@H](CCC(N)=O)C(=O)N[C@@H](C)C(=O)N[C@@H](CCCNC(=N)N)C(=O)N[C@@H](C)C(=O)O)[C@@H](C)O)[C@@H](C)O)C(C)C)C(C)C` [His-CM18-PTD4]?
viability [1]: 63.2 ± 4.07%; HOXB4-WT nuclear delivery (immuno-labelling) [2]: HOXB4-WT was successfully delivered to the nucleus after 30 min; delivery of functional CRISPR/Cas9 complex, cleavage of genomic PPIB (in words) [3]: successfully deliver a functional CRISPR/Cas9 complex to the nucleus of HeLa cells; Cell viability (%) (±St. Dev.; n = 3) [4, 7]: 94.6 ± 0.4%; Mean % cells with GFP signal (±St. Dev.; n = 3) [4, 7]: 72.3 ± 5.3%; Mean % cells with GFP signal (±St. Dev.; n = 3) ([4]; Table 9.1, Protocol A, HeLa, shuttle 10 μM, GFP-NLS 5 μM, 1 hour): 25.4 ± 3.6%; Mean % cells with GFP signal (±St. Dev.; n = 3) ([4]; Table 9.1, Protocol B, HeLa, shuttle 35 μM, GFP-NLS 5 μM, 10 seconds): 78.3 ± 5.3%; Mean % cells with GFP signal (±St. Dev.; n = 3) ([4]; Table 9.2, Protocol B, HeLa, shuttle 10 μM, GFP-NLS 5 μM, 10 seconds): 25.3 ± 3.6%; Mean % cells with GFP signal (±St. Dev.; n = 3) ([4]; Table 9.2, Protocol B, HeLa, shuttle 25 μM, GFP-NLS 5 μM, 10 seconds): 62.1 ± 6.1%; Mean % cells with GFP signal (±St. Dev.; n = 3) ([4]; Table 9.2, Protocol B, HeLa, shuttle 35 μM, GFP-NLS 5 μM, 10 seconds): 77.7 ± 7.8%; Mean % cells with GFP signal (±St. Dev.; n = 3) ([4]; Table 9.2, Protocol B, HeLa, shuttle 50 μM, GFP-NLS 5 μM, 10 seconds): 73.2 ± 5.2%; Mean % cells with GFP signal (±St. Dev.; n = 3) ([4]; Table 10.1, Protocol B, HeLa, shuttle 50 μM, GFP-NLS 5 μM, 10 seconds): 68 ± 2.2%; Mean % cells with GFP signal (±St. Dev.; n = 3) ([4]; Table 10.2, Protocol B, HeLa, shuttle 10 μM, GFP-NLS 5 μM, incubation 1 min.): 50.6 ± 3.5%; Mean % cells with GFP signal (±St. Dev.; n = 3) ([4]; Table 10.2, Protocol B, HeLa, shuttle 10 μM, GFP-NLS 5 μM, incubation 2 min.): 74 ± 3.3%; Mean % cells with GFP signal (±St. Dev.; n = 3) ([4]; Table 10.2, Protocol B, HeLa, shuttle 10 μM, GFP-NLS 5 μM, incubation 5 min.): 82.7 ± 5.0%; Relative fluorescence intensity (FL1-A) (n = 3) ([4]; HeLa, shuttle 10 μM, GFP-NLS 5 μM, incubation 1 min.): 524 151; Relative fluorescence intensity (FL1-A) (n = 3) ([4]; HeLa, shuttle 10 μM, GFP-NLS 5 μM, incubation 2 min.): 755 624; Relative fluorescence intensity (FL1-A) (n = 3) ([4]; HeLa, shuttle 10 μM, GFP-NLS 5 μM, incubation 5 min.): 173 930; Cell viability (%) (±St. Dev.; n = 3) [4, 8]: 92 ± 3.6%; Mean % cells with GFP signal (±St. Dev.; n = 3) [4, 8]: 68 ± 2.2%; Mean % cells with GFP signal (±St Dev.; n = 3) ([4]; Table 10.3e, Protocol B, HeLa, shuttle 20 μM, GFP-NLS 5 μM, 1 minute): 60.3 ± 3.2%; GFP-NLS transduction efficiency ([4]; peptide 20 μM, GFP-NLS 5 μM, 1 minute, Protocol B (Table 10.3e)): 60%; GFP-NLS delivery (microscopy, in words) ([4]; shuttle 35 μM, GFP-NLS 5 μM, 10 seconds, Protocol B): successfully transduced and delivered to the nucleus and/or the cytosol; time by which GFP-NLS is delivered to the nucleus ([4]; shuttle 50 μM, GFP-NLS 5 μM, exposed 10 seconds, Protocol B, microscopy): ≤ 2 min; Cell viability (%) (±St. Dev.; n = 3) [5]: 98.4 ± 0.6%; Mean % cells with GFP signal (±St. Dev.; n = 3) [5]: 40.2 ± 3.1%; Cell viability (%) (±St. Dev.; n = 3) [6]: 3.3 ± 5.4%; Mean % cells with GFP signal (±St. Dev.; n = 3) [6]: 35.4 ± 3.9%
